From paper PMC11278233, “The Composition of Triterpene Glycosides in the Sea Cucumber Psolus peronii: Anticancer Activity of the Glycosides against Three Human Breast Cancer Cell Lines and Quantitative Structure–Activity Relationships (QSAR)” (Marine Drugs, 2024) come the findings set out here.

Structures are written as SMILES. Where two headings read alike, the source gives them in different places.

For one data set, the system named is human erythrocytes. The experiment in a line: Hemolytic activity. The format is cell-based. Conditions: Erythrocyte, 1 h at 37 °C, lysis of 50% of erythrocytes. How it is done: A total of 450 g of human blood (B(III) Rh+) was used to obtain erythrocytes by centrifuging it three times for 5 min with phosphate-buffered saline (PBS) (pH 7.4) at 4 °C on the centrifuge LABOFUGE 400R (Heraeus, Hanau, Germany). Ice-cold PBS (pH 7.4) was used for resuspension of the erythrocyte residue to a final optical density of 1.5 at 700 nm, which was kept on ice. Then, 20 µL of the tested compound solutions was added to 180 µL of the erythrocyte suspension in V-bottom 96-well plates and exposed for 1 h at 37 °C. The layers were separated by centrifugation at 900 g for 10 min on the laboratory centrifuge LMC-3000 (Biosan, Riga, Latvia). A total of 100 µL of the supernatant was carefully decanted and transferred into a new flat plate. The values of erythrocyte lysis were measured on a microplate photometer Multiskan FC (Thermo Fisher Scientific, Waltham, MA, USA) at λ = 570 nm as the hemoglobin concentration in the supernatant. […] All the experiments were carried out in triple repetitions; p ≤ 0.05.

The nature of the next data set: in vitro. Format: cell-based, human. Conditions: human.
The subject of data set [1] is non-transformed epithelial cells of the mammary gland MCF-10A. The experiment in a line: in vitro. The format is cell-based, human.
Data set [2] relates to human breast cancer cell line MCF-7. Briefly: cells. Format: cell-based. Conditions: for Selectivity Index MCF-7: ratio of IC50 for healthy (MCF-10A) and cancer cells.
The test system of data set [3] is human breast cancer cell line T-47D. Briefly: cells. Format: cell-based. Conditions: for Selectivity Index T-47D: ratio of IC50 for healthy (MCF-10A) and cancer cells.
The subject of data set [4] is triple-negative human breast cancer cell line MDA-MB-231. Briefly: cells. The format is cell-based. Conditions: for IC50: Homo sapiens; for Selectivity Index MDA-MB-231: ratio of IC50 for healthy (MCF-10A) and cancer cells.
Data set [5] relates to MCF-7 cells. The experiment in a line: Colonogenic (colony formation) assay, MCF-7. The format is cell-based. Conditions: Homo sapiens, MCF7, 336 h, 14 days. How it is done: (§1) The cancer cells (MDA-MB-231, MCF-7 and T-47D lines) were cultured on 6-well plates at a density of 1 × 10^3 per well in control media (MEM media, 10% FBS, 10,000 U/mL of penicillin and […] of streptomycin) or in media supplemented with different concentrations of the glycosides. The cells were incubated for 14 days at 37 °C in a 5% CO2 humidified incubator. Then, the colonies were fixed with methanol (25 min), stained with a 0.5% solution of crystal violet (25 min), washed with H2O and dried in air. Counting of the grown colonies was carried out using a BIO-PRINT-Cx4 Edge-Fixed Pad-Container (Vilber, Collegien, France) device and using the software Bio-Vision SOFTWARE User and service manual-v18.01 (Vilber, Collegien, France). The results are presented as % of colony inhibition in relation to the control.

Data set [6] has as its system MDA-MB-231 cells. Briefly: Colonogenic (colony formation) assay, MDA-MB-231. Format: cell-based. Conditions: Homo sapiens, 336 h, 2 μM, 14 days, read-out: inhibition of the growth of colonies. How it is done: as §1
The test system of another data set is T-47D cells. Briefly: Colonogenic (colony formation) assay, T-47D. The format is cell-based, human. The conditions noted are these: 1 μM, 14 days. How it is done:
as §1

Data set [7] concerns MCF-7 cells. The experiment in a line: Wound healing (scratch) assay, MCF-7. The format is cell-based, human. The conditions noted are these: 1 and 2 μM, within 48 h, control migrated by 84.60 ± 2.12%. On the procedure:
(§2) To analyze the influence of the tested compounds on tumor cell migration, MCF-7 and MDA-MB-231 (5 × 10^5) cells attached to the plate’s plastic bottom were separated using a silicone insert from special migration plates (Culture-insert 2Well 24, ibiTreat). When the insert was removed, a gap of […] (according to the manufacturer’s data) between the cells was left. After 24 h, the cells were washed twice with PBS to remove cell debris and floating cells, treated with 1 and 2 μM of psolusosides A (2) and L (6) and placed in the real-time live cell imaging system Juli Stage (NanoEntek, Seoul, South Korea). Cells treated with the culture medium only were used as the control. The cell migration was analyzed in real time (15 min for each cycle). For the MDA-MB-231 cells, observations were carried out for 12 h (until complete healing of the wound area in the control); for MCF-7 cells, this time was 48 h. The results were processed using the program Juli^TM Stat (NanoEntek, South Korea).

Data set [8] deals with MDA-MB-231 cells. The experiment in a line: Wound healing (scratch) assay, MDA-MB-231. The format is cell-based, human. The conditions noted are these: 2 μM, within 12 h, control 99.83 ± 0.08%. On the procedure: as §2

With `C=C(C)CCC[C@]1(C)OC(=O)[C@]23CC=C4[C@@H](CC[C@H]5C(C)(C)[C@@H](O[C@@H]6OC[C@@H](O[C@@H]7O[C@H](COS(=O)(=O)[O-])[C@@H](O)[C@H](O)[C@H]7O)[C@H](O)[C@H]6O[C@@H]6O[C@H](C)[C@@H](O[C@@H]7O[C@H](COS(=O)(=O)[O-])[C@@H](O)[C@H](O[C@@H]8O[C@H](COS(=O)(=O)[O-])[C@@H](O)[C@H](OC)[C@H]8O)[C@H]7O)[C@H](O)[C@H]6O)CC[C@]45C)[C@]2(C)CC(=O)[C@@H]31.[Na+].[Na+].[Na+]` [psolusoside L (6), psolusoside L], the half-inhibitory concentration (IC50) with human erythrocytes stood at 1.83 ± 0.14 µM; in data set [2] (Homo sapiens, MCF7, 24 h, read-out: Cytotoxicity, IC50 µM MCF-7) it was 13.7 ± 0.31 µM; in [3] (Homo sapiens, T47D, 24 h, read-out: Cytotoxicity, IC50 µM T-47D) it was 5.45 ± 0.04 µM; in data set [4] (MDA-MB-231, 24 h, read-out: Cytotoxicity, IC50 µM MDA-MD-231) it was 6.39 ± 0.3 µM; in [4] (MDA-MB-231, MTT assay, 48 h incubation, read-out: IC50 against MDA-MB-231 cells (antiproliferative effect)), 1.67 ± 0.16 µM; in [4] (MDA-MB-231, MTT assay, 72 h incubation, read-out: IC50 against MDA-MB-231 cells (antiproliferative effect)), 1.24 ± 0.02 µM. The compound further had an IC50 at 24 h in the data set “in vitro” of 33.08 ± 0.29 µM. Besides, the “cytotoxicity to non-transformed MCF-10A cells (result in words)” value in data set [1] was “slightly cytotoxic”. Besides, the “Selectivity Index MCF-7” value in data set [2] (24 h of exposition) is reported as 2.41; in data set [2] (48 h of exposition) it was 1.33; in data set [2] (72 h of exposition), 0.66. The “Selectivity Index T-47D” value turned out to be 6.07 in data set [3] (24 h of exposition), 1.25 in data set [3] (48 h of exposition) and 0.91 in data set [3] (72 h of exposition). The results for the “Selectivity Index MDA-MB-231” value in data set [4] (24 h of exposition), in [4] (48 h of exposition) and in data set [4] (72 h of exposition) were 5.18, 5.83 and 4.56, respectively. This compound came in with an inhibition at 1 µM in the data set on MCF-7 cells [5] (1 μM) of 19.6 ± 0.24%. Moreover, the inhibition at 2 µM in the data set on MCF-7 cells [5] (2 μM) is 89.67 ± 0.28%; with MDA-MB-231 cells [6], 90.4 ± 0.92%. For the same compound, 5 µM produced 97.83 ± 0.25% inhibition with MCF-7 cells [5] (5 μM). Moreover, the “growth of colonies (result in words)” value in the data set with T-47D cells was “completely blocked”. The “reduction of the migration of cells to the scratch area” value with MCF-7 cells [7] is given as 33–42%. Besides, in the data set with MDA-MB-231 cells [8], the “overgrowth of the wound area (migration)” value stood at 6.03 ± 0.02%.

As usually defined, the IC50 is the midpoint of a concentration-inhibition curve. For orientation: inhibition means how much of the control response was suppressed.
